Values joined by “and” are separate entries in the source; they are usually repeats but may differ in a detail not shown here. Equal entries are not always repeated.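 Step 1: Grow cells in 96-well plates. Step 2: Expose to compound for 48 hours at 5 concentrations. Step 3: Interpolate endpoints linearly; if unreached, use highest concentration. GI50: concentration for 50% inhibition of growth. TGI is the concentration that stops growth completely.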
Tests used:
Assay in all cases: inhibition of tumour cell growth, NCI panel, 48 h
EKVX NSCLC = system: EKVX NSCLC
RXF 393 renal = system: RXF 393 renal
OVCAR-8 ovarian = system: OVCAR-8 ovarian
HCT-116 colon = system: HCT-116 colon
A549 NSCLC = system: A549 NSCLC
SW-620 colon = system: SW-620 colon
OVCAR-4 ovarian = system: OVCAR-4 ovarian
SK-MEL-28 melanoma = system: SK-MEL-28 melanoma
HCC-2998 colon = system: HCC-2998 colon
A498 renal = system: A498 renal

Row | Compound | GI50 (EKVX NSCLC) | TGI (EKVX NSCLC) | GI50 (RXF 393 renal) | TGI (RXF 393 renal) | GI50 (OVCAR-8 ovarian) | TGI (OVCAR-8 ovarian) | GI50 (HCT-116 colon) | TGI (HCT-116 colon) | GI50 (A549 NSCLC) | TGI (A549 NSCLC) | GI50 (SW-620 colon) | TGI (SW-620 colon) | GI50 (OVCAR-4 ovarian) | TGI (OVCAR-4 ovarian) | GI50 (SK-MEL-28 melanoma) | TGI (SK-MEL-28 melanoma) | GI50 (HCC-2998 colon) | TGI (HCC-2998 colon) | TGI (A498 renal) | GI50 (A498 renal)
1 | COc1ccc(/C(COc2c(-c3ccccc3)oc3ccccc3c2=O)=N\O)cc1 | 14.2 µM | > 50 µM | 31.9 µM | > 50 µM | 47.6 µM | > 50 µM | 21.8 µM | > 50 µM | 23.2 µM | > 50 µM | 19.5 µM | > 50 µM | 37.1 µM | > 50 µM | 15 µM | > 50 µM | 8.42 µM | 22.3 µM |  | 
2 | COc1ccc(-c2cc(=O)c3c(OC)c(OC)c(OC)cc3o2)cc1 |  | > 100 µM |  | > 100 µM |  | > 100 µM |  | > 100 µM |  | 85.9 µM |  | > 100 µM |  | > 100 µM |  | > 100 µM |  | 49 µM | 84 µM | 
3 | COc1cc2c(c(O)c1Br)C(=O)c1c(O)cc(C[C@H](C)O)cc1[C@H]2[C@H]1c2cc(C[C@H](C)O)cc(O)c2C(=O)c2c1cc(OC)c(Br)c2O | 4.86 µM and 6.86 µM | 16.3 µM and 27.5 µM | 2.59 µM and 2.72 µM | 22 µM and 9.33 µM | 3.23 µM and 7.56 µM | 67.5 µM and > 100 µM | 3.77 µM and 5.49 µM | 67.5 µM and 63.1 µM | 10.1 µM and 20.9 µM | 32.9 µM and > 100 µM | 5.36 µM and 19.9 µM | 67.5 µM and > 100 µM | 11.1 µM and 25 µM | 67.5 µM and 98.1 µM | 4.54 µM and 5.6 µM | 32.9 µM and > 100 µM | 8.39 µM and 14.8 µM | 67.5 µM and > 100 µM | 35.1 µM and 58.5 µM | 4.35 µM and 22.5 µM
4 | CCc1ccc(/C=C\c2cc(OC)c(OC)c(OC)c2)cc1 | 0.0521 µM | > 100 µM |  | 0.0783 µM |  | 0.581 µM | 0.0187 µM | 0.464 µM and 1.18 µM |  | 53.1 µM |  |  |  | > 100 µM | 0.0395 µM | > 100 µM | 0.0577 µM | 0.342 µM and 0.438 µM | 0.433 µM and 0.389 µM | 0.0233 µM
5 | CC/C(=C(/c1ccc(O)cc1)c1ccc(OCCNC)cc1)c1ccccc1 |  |  | 1.68 µM | 3.69 µM | 2.14 µM | 5.13 µM | 1.68 µM | 3.12 µM | 1.89 µM | 3.95 µM | 1.72 µM | 3.26 µM | 3.32 µM | 15.4 µM | 1.71 µM | 3.21 µM | 1.9 µM | 3.46 µM | 6.55 µM | 1.64 µM
6 | O=C(O)CNS(=O)(=O)c1ccc(NCc2ccccc2)cc1 |  | > 100 µM |  | > 100 µM |  | > 100 µM |  | > 100 µM |  | > 100 µM |  | > 100 µM |  | > 100 µM |  | > 100 µM |  | > 100 µM |  | 
7 | COc1cc(C2NC(=O)c3ccccc3N2)ccc1OCCCCCOc1c(OC)cc(C2=NOC(c3cc(OC)c(OC)c(OC)c3)C2)cc1OC (centres undefined) | 0.365 µM | > 100 µM |  |  | 25.2 µM | > 100 µM | 0.433 µM | 32.4 µM | 2.25 µM | 97.7 µM | 14.7 µM | > 100 µM | 0.417 µM | > 100 µM | 4.13 µM | > 100 µM | 1.14 µM | 37.8 µM | > 76.8 µM | 19.5 µM
8 | O=C(c1ccccc1)c1nnc(C(=O)c2ccccc2)nn1 |  | > 344 µM |  | 261 µM |  | > 344 µM |  | > 344 µM |  | > 344 µM |  | > 344 µM |  | > 344 µM |  | > 344 µM |  | > 344 µM |  | 
9 | CC(=O)CNC(=O)OC(C)(C)C |  | > 100 µM |  | > 100 µM |  | > 100 µM |  | > 100 µM |  | > 100 µM |  | > 100 µM |  | > 100 µM |  | > 100 µM |  |  | > 100 µM | 
10 | Cn1c(=O)c2[nH]c(SCc3ccccn3)nc2n(C)c1=S |  | > 100 µM |  | > 100 µM |  | > 100 µM |  | > 100 µM |  | > 100 µM |  | > 100 µM |  | > 100 µM |  | > 100 µM |  |  | 55.2 µM | 
11 | O=C1NC2OC(CO)C(O)C(O1)C2O (centres undefined) |  | > 100 µM |  | > 100 µM |  | > 100 µM |  |  |  |  |  | > 100 µM |  | > 100 µM |  | > 100 µM |  |  | > 100 µM | 
12 | CCC(C)c1c(Cl)nc(Cl)nc1Cl (centres undefined) |  | 48.8 µM |  | 20.7 µM |  | 38.3 µM |  | 17.9 µM |  |  |  | > 100 µM |  | 46.2 µM |  | 22.5 µM |  | 60.6 µM |  | 
13 | [Cl-].[Dy+3].[O-]/N=C(\c1ccccc1)c1ccccn1.[O-]/N=C(\c1ccccc1)c1ccccn1.[O-]/N=C(\c1ccccc1)c1ccccn1 | 31.2 µM | > 100 µM |  |  | 35.8 µM | > 100 µM | 49.8 µM | > 100 µM | 32.2 µM | > 100 µM | 41.8 µM | > 100 µM | 44.3 µM | > 100 µM | 27.6 µM | 90.8 µM | 27.6 µM | 88.8 µM | > 100 µM | 25.8 µM
14 | COc1ccc(C2=CC3CCC2C3)cc1 (centres undefined) |  | > 100 µM |  | > 100 µM |  | > 100 µM |  | > 100 µM |  | > 100 µM |  | > 100 µM |  | > 100 µM |  | > 100 µM |  |  | > 100 µM | 
15 | O/N=C/C1c2ccccc2-c2ccccc21 |  | 28.2 µM |  | 41.5 µM |  | 41.5 µM |  | 32.8 µM |  | 51.5 µM |  | 40.7 µM |  |  |  | 29.2 µM |  | 31.9 µM | 32.9 µM | 
16 | Cc1ccc2c(c1)[n+]([O-])c(N)n[n+]2[O-] |  | > 100 µM |  |  |  | > 100 µM |  | > 100 µM |  | > 100 µM |  | > 100 µM |  | > 100 µM |  | > 100 µM |  |  | > 100 µM | 
17 | O=C1CCCCN1CCCCC#Cc1ccccc1C#Cc1ccc([N+](=O)[O-])cc1 | 5.26 µM | 40 µM | 1.68 µM | 11.1 µM | 2.81 µM | 9.13 µM | 4.18 µM | 13.5 µM | 3.03 µM | 13 µM | 5.18 µM | 18.3 µM | 4.38 µM | 22.5 µM | 10.5 µM | 22.4 µM |  |  | 25 µM | 4.01 µM
18 | NC(=O)c1ccc(I)c(N)c1 | > 100 µM | > 100 µM | > 100 µM | > 100 µM | > 100 µM | > 100 µM | > 100 µM | > 100 µM | > 100 µM | > 100 µM | > 100 µM | > 100 µM | > 100 µM | > 100 µM | > 100 µM | > 100 µM | > 100 µM | > 100 µM |  | 

Source: PubChem BioAssay (NCI)
